# Columns and labels:
# [1] = system: human gastric cancer cell line MKN45 (MKN45 KO cells); experiment: Apoptosis-inducing activity by PBMC of oral cavity cancer patient after administration of propagermanium; assay type: cell-based; settings: for Increase of apoptosis-inducing activity compared to before starting the administration: time point of 48 hours
# Description: MKN45 KO cells obtained by fluorescently labeling human gastric cancer cell line MKN45 with Kurabira Orange (1×10^4 cells) were cultured using an RPMI 1640 medium containing 10% FBS in 35 mm dishes (Day 0). On next day (Day 1), the medium was changed to an F12-K medium (2 mL) containing 10% FBS, and in Experimental Example 5, a suspension of peripheral blood mononuclear cells (1×10^6 cells) separated from peripheral blood of the oral cavity cancer patient of PG-4 before the administration of the propagermanium and on 28th and 56th days after the administration in F12-K medium (1 mL) is added to the culture dish. Furthermore, 3 μL of IncuCyte (registered trademark) Caspase-3/7 Green Apoptpsis Reagent (Cat No. 4440, produced by Essen BioScience) was added and cultured. Time-lapse photography was performed every 10 minutes for 48 hours, by using BioStation (produced by Nikon Corporation) (Days 1 to 3). An animation was created from result of photography for 48 hours, and the numbers of viable gastric cancer cells (with orange fluorescence) at and apoptosis-induced gastric cancer cells (with green fluorescence) at the time points of 0, 8, 16, 24, 32, 40, and 48 hours were calculated respectively. When calculating the number of cells, 100 to 150 cells were targeted at time point of 48 hours, and cells of 4 to 5 fields of view were summed at 200 times observation by a microscope at each time point. In addition, at each time point, only cells that adhered to the culture dish and could be continuously observed were targeted for counting, and cells that were slightly out of an imaging field of stratified cells were excluded from counting.
# The apoptosis-inducing activity (%) at each time point was calculated by using Expression (II) below.
# {Number of apoptosis-induced gastric cancer cells/(Number of viable gastric cancer cells+Number of apoptosis-induced gastric cancer cells)}×100 (II)
# [2] = system: advanced or recurrent gastric cancer; experiment: Tumor immunity risk index value and disease course in gastric cancer patients given propagermanium; assay type: in vivo, human; settings: for Disease course / Tumor immunity risk index value: 28th day after starting administration
# Description: (§1) 30 mg of propagermanium [trade name: SEROCION (registered trademark), produced by SANWA KAGAKU KENKYUSHO CO., LTD.] was administered orally in three divided doses per day after meals to 4 patient cases (PG-1 to PG-4) who were diagnosed as advanced or recurrent oral cavity cancer which is non-responsive or non-tolerant to the standard chemotherapy and incurable and unresectable, a 2 patient cases (PG-5 and PG-6) who were diagnosed as advanced or recurrent gastric cancer which is non-responsive or non-tolerant to the standard chemotherapy [gastric cancer treatment guideline fourth edition (edited by Japan Gastric cancer Association, revised in May 2014)] and incurable and unresectable, and 5 healthy person cases (PG-7 to PG-11). 7.5 mL of peripheral blood of the cancer patients (PG-1 and PG-3: only before administration, PG-5 and PG-6: before administration and only 28th day after a start of administration) and healthy persons (all: only before the administration), were collected by a BD vacutainer blood collection tube at the time before the administration of the propagermanium and on 28th and 56th days after starting the administration. Thereafter, and the peripheral blood was centrifuged (1500 G for 15 minutes) to obtain the peripheral blood mononuclear cells (PBMC). The obtained peripheral blood mononuclear cells were fixed and stained using a T cell surface marker and a mouse IgG anti-human antibody against intracellular keratin. The stained cells were analyzed by flow cytometry using a Spectral Cell Analyzer (SP-6800, manufactured by SONY).
# (§2) Regarding the T cells and the cytotoxic T cells, among living cells, CD45 positive and CD3 positive cells are separated to obtain T cells, and among the CD45 positive and CD3 positive cells, CD8 positive and CD4 negative cells are separated to obtain the cytotoxic T cells. The proportion of the cytotoxic T cells in the T cells was calculated.
# (§3) In the circulating tumor cells in blood, in order to label the cytokeratin present inside the cells, after using Perm Buffer reagent (#421403, produced by BioLegend), staining was performed using a pankeratin antibody (#4523, produced by Cell Signaling). Since the circulating tumor cells in blood are larger than lymphocytes, when flow cytometry is performed, cells were selected in a wider range than in the selection of normal lymphocytes. After selecting cells negative in staining using Ghost Dye Violet 450 as living cells, pankeratin positive cells were regarded as the circulating tumor cells in blood, and the number of the pankeratin positive cells in 10000 peripheral blood mononuclear cells was calculated.
# (§4) The calculated number of the pankeratin positive cells and the proportion of cytotoxic T cells in the T cells is substituted into Expression (1) below.
# (§5) Number of pankeratin positive cells (pieces)/Proportion of cytotoxic T cells in T cells (%)/10 (I)
# (§6) The disease of each patient was determined by an attending physician based on results of endoscopy, computed tomography (CT) examination, positron emission tomography (PET)-CT examination, magnetic resonance imaging (MRI) examination, X-ray (X-P) examination, and blood biochemistry examination including the major markers.
# [3] = system: advanced or recurrent oral cavity cancer; experiment: Tumor immunity risk index value, OS and disease course in oral cavity cancer patients given propagermanium; assay type: in vivo, human; settings: for OS: BSC median 46 days
# Description: as §1, §2, §3, §4, §5, §6
# [4] = patient PG-2 (oral cavity cancer)
substance,measurement,setting,value
propagermanium,Increase of apoptosis-inducing activity compared to before starting the administration,[1]; 28th day after starting administration,approximately 3.1 times
same,Increase of apoptosis-inducing activity compared to before starting the administration,[1]; 56th day after starting administration,approximately 3.7 times
same,Apoptosis-inducing activity,"[1]; PBMC of patient PG-4, 28th day after starting administration, culture for 0 hours",0.00%
same,Apoptosis-inducing activity,"[1]; PBMC of patient PG-4, 28th day after starting administration, culture for 48 hours, before administration 4.00",12.50%
same,Apoptosis-inducing activity,"[1]; PBMC of patient PG-4, 56th day after starting administration, culture for 0 hours",0.00%
same,Apoptosis-inducing activity,"[1]; PBMC of patient PG-4, 56th day after starting administration, culture for 48 hours, before administration 4.00",14.60%
same,Evaluation of the administration (effective / ineffective),[2]; patient PG-5 (gastric cancer),ineffective
same,Disease course,[2]; patient PG-5 (gastric cancer),disease progressed
same,Tumor immunity risk index value,"[2]; patient PG-5 (gastric cancer), before 5.04",9.55
same,Evaluation of the administration (effective / ineffective),[2]; patient PG-6 (gastric cancer),effective
same,Disease course,[2]; patient PG-6 (gastric cancer),disease was controlled
same,Tumor immunity risk index value,"[2]; patient PG-6 (gastric cancer), before 41.12",0.31
same,Evaluation of the administration (effective / ineffective),[3]; patient PG-1 (oral cavity cancer),ineffective
same,OS,"[3]; patient PG-1 (oral cavity cancer), administration discontinued midway",39 days
same,Disease course,"[3]; patient PG-1 (oral cavity cancer), from the start of administration",disease got worse
same,Evaluation of the administration (effective / ineffective),[3]; [4],effective
same,Disease course,"[3]; patient PG-2 (oral cavity cancer), 28th day after starting administration",disease was controlled
same,Tumor immunity risk index value,"[3]; patient PG-2 (oral cavity cancer), 28th day after starting administration, before 0.27",1.70
same,Tumor immunity risk index value,"[3]; patient PG-2 (oral cavity cancer), 56th day after starting administration, before 0.27",4.93
same,OS,[3]; [4],105 days
same,Evaluation of the administration (effective / ineffective),[3]; patient PG-3 (oral cavity cancer),ineffective
same,OS,"[3]; patient PG-3 (oral cavity cancer), administration discontinued midway",36 days
same,Disease course,"[3]; patient PG-3 (oral cavity cancer), from the start of administration",disease got worse
same,Evaluation of the administration (effective / ineffective),[3]; patient PG-4 (oral cavity cancer),effective
same,Disease course,"[3]; patient PG-4 (oral cavity cancer), 28th and 56th days after starting administration",disease was controlled at any time point
same,Tumor immunity risk index value,"[3]; patient PG-4 (oral cavity cancer), 28th day after starting administration, before 2.07",0.49
same,Tumor immunity risk index value,"[3]; patient PG-4 (oral cavity cancer), 56th day after starting administration, before 2.07",1.77
same,OS,"[3]; patient PG-4 (oral cavity cancer), counted before the chemotherapy intervention",85 days

# From patent US20200268703A1, “MEDICINE FOR TREATING ADVANCED OR RECURRENT CANCER PATIENT BEING NON-RESPONSIVE OR NON-TOLERANT TO STANDARD CHEMOTHERAPY AND INCURABLE AND UNRESECTABLE” (HYOGO COLLEGE OF MEDICINE, priority 2017, published 2020)
